Test results taken from ChEMBL document CHEMBL3988442, “University of Dundee, Small-Polar-MMV Screening Library” (2021).
“And” between values parts separate entries of the source, which are not always exact repeats. Equal values may be shown once.

Molecular target: Polyketide synthase Pks13 (Mycobacterium tuberculosis (strain ATCC 25618 / H37Rv), UniProt I6X8D2)
Assay: Mycobacterium tuberculosis Polyketide synthase 13 Thioesterase (PKS13)
Format: functional

Sequence of Polyketide synthase Pks13 (I6X8D2 whole entry): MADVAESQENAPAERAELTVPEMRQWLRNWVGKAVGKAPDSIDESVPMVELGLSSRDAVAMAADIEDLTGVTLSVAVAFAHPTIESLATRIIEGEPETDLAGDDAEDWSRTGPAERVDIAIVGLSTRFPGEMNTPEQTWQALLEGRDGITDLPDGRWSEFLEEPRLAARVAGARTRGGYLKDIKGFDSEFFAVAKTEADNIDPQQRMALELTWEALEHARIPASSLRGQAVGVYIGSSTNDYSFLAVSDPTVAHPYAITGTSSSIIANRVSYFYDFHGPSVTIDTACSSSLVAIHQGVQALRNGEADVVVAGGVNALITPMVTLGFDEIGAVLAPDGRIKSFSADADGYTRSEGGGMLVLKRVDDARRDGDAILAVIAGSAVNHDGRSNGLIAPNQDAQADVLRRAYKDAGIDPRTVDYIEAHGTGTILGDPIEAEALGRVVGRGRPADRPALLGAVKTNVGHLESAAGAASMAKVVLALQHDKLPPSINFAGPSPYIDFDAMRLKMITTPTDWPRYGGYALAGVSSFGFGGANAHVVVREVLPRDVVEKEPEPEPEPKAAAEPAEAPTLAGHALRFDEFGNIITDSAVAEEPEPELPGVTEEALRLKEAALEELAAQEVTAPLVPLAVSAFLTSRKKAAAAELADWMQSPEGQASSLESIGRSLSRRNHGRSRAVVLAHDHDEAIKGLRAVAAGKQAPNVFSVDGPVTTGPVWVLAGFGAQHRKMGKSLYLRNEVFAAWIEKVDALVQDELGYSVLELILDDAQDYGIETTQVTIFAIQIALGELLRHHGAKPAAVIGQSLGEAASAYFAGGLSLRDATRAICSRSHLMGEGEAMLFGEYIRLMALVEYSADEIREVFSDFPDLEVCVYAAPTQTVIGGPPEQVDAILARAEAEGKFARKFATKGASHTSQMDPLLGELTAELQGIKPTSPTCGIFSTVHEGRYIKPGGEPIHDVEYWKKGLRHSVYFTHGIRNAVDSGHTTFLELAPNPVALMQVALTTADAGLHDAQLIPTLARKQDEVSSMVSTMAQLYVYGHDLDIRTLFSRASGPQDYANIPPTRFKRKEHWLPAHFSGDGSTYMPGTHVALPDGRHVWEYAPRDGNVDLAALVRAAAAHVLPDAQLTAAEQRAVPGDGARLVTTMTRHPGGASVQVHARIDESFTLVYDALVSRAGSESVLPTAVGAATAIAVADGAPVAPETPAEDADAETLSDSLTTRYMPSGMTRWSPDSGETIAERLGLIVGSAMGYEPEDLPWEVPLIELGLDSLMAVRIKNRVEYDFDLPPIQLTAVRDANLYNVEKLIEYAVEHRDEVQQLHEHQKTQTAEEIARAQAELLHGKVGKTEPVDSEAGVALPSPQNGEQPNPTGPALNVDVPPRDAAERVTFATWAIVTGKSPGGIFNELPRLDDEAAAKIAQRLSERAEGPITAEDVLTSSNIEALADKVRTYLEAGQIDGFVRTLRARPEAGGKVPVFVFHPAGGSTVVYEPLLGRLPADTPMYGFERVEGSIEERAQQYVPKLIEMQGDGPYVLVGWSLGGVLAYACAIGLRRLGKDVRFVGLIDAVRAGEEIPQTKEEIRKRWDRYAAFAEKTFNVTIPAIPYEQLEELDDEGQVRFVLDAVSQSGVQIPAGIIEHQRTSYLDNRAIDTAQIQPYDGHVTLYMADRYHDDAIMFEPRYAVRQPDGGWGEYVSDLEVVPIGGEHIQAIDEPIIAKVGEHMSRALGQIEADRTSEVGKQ

Row | Structure (SMILES) | IC50
1 | Cc1nn(C)cc1-c1ccnc(N(C)Cc2ccoc2)n1 | > 100 µM
2 | CCc1ccc(C(O)CN2CCN(c3cccc(OC)c3)CC2)cc1 (configuration not stated) | 23.2 µM and 27.3 µM
3 | O=C(c1cc2cc(F)ccc2[nH]1)N1CCC(Nc2ccc(F)cc2)CC1 | > 100 µM and 12.6 µM
4 | COc1ccc2nc(C3CC3)cc(C(=O)NCc3noc(C)n3)c2c1 | 21.6 µM and 21.4 µM
5 | Cc1cc(-c2cnn(CCNC(=O)c3snnc3C)c2C2CC2)on1 | > 100 µM
6 | Cn1cc(-c2cc(C(F)F)n3nc(CCC(=O)O)nc3n2)cn1 | 12 µM and 19.8 µM
7 | CN(Cc1ccc(N2CCCCC2)cc1)Cc1noc(C(C)(C)C)n1 | > 100 µM
8 | Cc1cccn2c(=O)cc(CSCC(=O)Nc3nnc(C(C)C)s3)nc12 | > 100 µM
9 | O=C(CCc1cc(Cl)no1)N1CCC(c2cc3ncccc3cn2)CC1 | > 100 µM
10 | CN1CC2(CCCN(Cc3nnc(-c4ccco4)o3)CC2)OC1=O (configuration not stated) | > 100 µM
11 | CC(C)c1nc(CN2CCc3onc(-c4cccc(F)c4)c3C2)no1 | > 100 µM
12 | CNC(=O)c1cnc(/C=C/c2cc(OC)cc(OC)c2)s1 | 29.1 µM and 11 µM
13 | COc1ccc2c(C(=O)N(C)C)cc(-c3cnc(N)nc3)nc2c1 | 30.4 µM and 38.7 µM
14 | CC1(NC(=O)Cc2csc(NC(=O)c3ccccc3)n2)CCS(=O)(=O)C1 (configuration not stated) | > 100 µM
15 | Cc1n[nH]c(C)c1CCN(C)c1ccc(-c2nc(C3CC3)no2)cn1 | > 100 µM
16 | O=C(Nc1cnc(N2CCOCC2)nc1)c1ccc(C(F)(F)F)cc1 | 22.3 µM and 20.4 µM
17 | Cn1ccc(C(=O)NCc2cccc(CN3CCCC3)c2)cc1=O | > 100 µM
18 | COc1cccc(C(=O)N2CCc3c(nc(N)[nH]c3=O)C2)c1C | > 100 µM
19 | Cn1cc(I)c(C(=O)NCCCn2cc(Br)cn2)n1 | 9.34 µM and 48.9 µM
20 | CC1(C)Cc2ccccc2-c2nc(NCCCO)[nH]c(=O)c21 | 28.6 µM and 27.1 µM
21 | Cn1cncc1-c1nnc([C@H]2CCN(Cc3ncc[nH]3)C2)o1 | > 100 µM

Row | Structure (SMILES) | IC50
22 | C[C@H](NC(=O)c1cccc(CCC(C)(C)O)c1)C(N)=O | > 100 µM
23 | O=C(Cc1cccc(F)c1)N1CCc2ncnc(NC3CC3)c2CC1 | > 100 µM
24 | O=C(C1CC1)N1CCc2ccccc2C12CCNCC2 | > 100 µM
25 | CCc1ccc(S(=O)(=O)NCC2CCN(c3cnccn3)CC2)s1 | 18.4 µM and 29.5 µM
26 | Cn1nc(C2CCCN2)c2c(C(=O)NCC(F)(F)F)cc(C3CC3)nc21 (configuration not stated) | > 100 µM
27 | O=C(O)CSc1nccc(-c2ccc3c(c2)OCO3)n1 | 16.4 µM and 18.6 µM
28 | O=C1CC(NCc2cnc(N3CCCC3)nc2)CN1c1ccccc1 (configuration not stated) | > 100 µM
29 | Cn1ccnc1C(=O)N1C[C@@H]2CCN(c3cnccn3)C[C@@H]2C1 | > 100 µM
30 | Cc1cc(S(=O)(=O)Nc2cccc(OC(F)F)c2)sc1C(=O)O | 16.4 µM and 3.37 µM
31 | CCC(C)Nc1ccc(-c2nc(-c3cccc(OC)c3OC)no2)cn1 (configuration not stated) | 28.7 µM and 14 µM
32 | COCc1nc(C(=O)N2CCCC2c2ccc(OC)cc2)cs1 (configuration not stated) | > 100 µM
33 | Cc1cc(C)c2cc(CNCc3cccnc3)c3nn(C)c(=O)n3c2c1 | 59.1 µM
34 | CCCNC(=O)CCNc1cncc(-n2nc(C)cc2C)n1 | 28 µM and 22 µM
35 | COCCc1noc(-c2cn(CCc3ccccc3)nn2)n1 | 20.8 µM and 8.65 µM
36 | NC(=O)CSc1nccc(-c2ccc3c(c2)OCO3)n1 | 20 µM and 18.9 µM
37 | Cc1cc(NCc2cccc(C#N)c2)ccc1Br | 20.6 µM and 18 µM
38 | COc1ccccc1N1CCC(CNS(=O)(=O)c2cccs2)C1 (configuration not stated) | 10.3 µM and 4.51 µM
39 | Cc1ccnc(OC[C@]23COC[C@H]2CN(C(=O)c2ncccn2)C3)n1 | > 100 µM
40 | O=C(c1ccc(-n2cc(Br)cn2)cc1)N1CCN(c2cnccn2)CC1 | 2.63 µM and 3.37 µM
41 | Cn1c(NCC(=O)N2CCCC2)c(C#N)c(=O)n(C)c1=O | > 100 µM
42 | Cc1cc(C)n(-c2nc(C(=O)NCCN3CCC(C)CC3)cs2)n1 | > 100 µM
